Patent US11141413B2, “Method of treating renal cell carcinoma using N-(4-(6,7-dimethoxyquinolin-4-yloxy)phenyl)-N′-(4-fluorophenyl)cyclopropane-1,1-dicarboxamide, (2S)-hydroxybutanedioate” (Exelixis, Inc., priority 2016, dated 2021)
Several values for one entry are separate records, joined by “and”; a condition that tells them apart may be missing. Identical values can stand only once.

Tested on: advanced renal cell carcinoma (RCC)
Experiment: METEOR (Study 1) randomized phase 3 trial, cabozantinib vs everolimus: PFS, OS, ORR
Type: in vivo, human
Details: for ORR (95% CI), IRC / ORR (95% CI), Investigator assessed / Progressive disease, IRC / Progressive disease, Investigator assessed / Stable disease, IRC / Stable disease, Investigator assessed / Confirmed ORR (95% CI), IRC / Confirmed ORR (95% CI), Investigator assessed / Confirmed responses (95% CI), IRC / Confirmed responses (95% CI), Investigator assessed: RECIST 1.1; for PFS event: all randomized
[1] = Patients With High Tumor Burden
[2] = Primary TWT analysis (first 375), cut-off May 2015, min follow-up 11 mo, 247 PFS events
[3] = Pts with Bone and Visceral Metastases
[4] = Supportive analysis, all events (all 658), cut-off May 2015, min follow-up 6 mo, 394 PFS events
[5] = Traditional analysis (all 658), cut-off November 2014, min follow-up 2 days, 247 PFS events
[6] = all 658 randomized, per IRC, cutoff May 22, 2015
[7] = earlier cutoff at 247 events in the ITT Pop (traditional design)
[8] = high tumor burden (≥median SoD)
[9] = patients with bone and visceral metastases
[10] = patients with visceral (lung or liver) metastases
[11] = pazopanib only prior VEGFR TKI subgroup
[12] = prior therapy subgroup Anti-PD-1/PD-L1
[13] = prior therapy subgroup Pazopanib Only
[14] = prior therapy subgroup Sunitinib Only
[15] = sunitinib only prior VEGFR TKI subgroup

## COc1cc2nccc(Oc3ccc(NC(=O)C4(C(=O)Nc5ccc(F)cc5)CC4)cc3)c2cc1OC [cabozantinib]
6 Months landmark
  Kaplan-Meier estimate of % of patients alive: 91% (87%, 93%)
12 Months landmark
  Kaplan-Meier estimate of % of patients alive: 73%
12 Months landmark, listed as Cabozantinib
  Kaplan-Meier estimate of % of patients alive: 73% (68%, 79%)
18 Months landmark
  Kaplan-Meier estimate of % of patients alive: 58%
18 Months landmark, listed as Cabozantinib
  Kaplan-Meier estimate of % of patients alive: 58% (53%, 64%)
24 Months landmark
  Kaplan-Meier estimate of % of patients alive: 48% (39%, 55%)
49% information fraction, all 658 randomized, at time of primary PFS analysis
  OS HR, planned interim analysis, cabozantinib vs everolimus: 0.67
Asia Pacific
  ORR (95% CI), IRC: 28 (15-45) %
  ORR (95% CI), Investigator assessed: 36 (21-53) %
  Progressive disease, IRC: 10%
  Progressive disease, Investigator assessed: 0%
  Stable disease, IRC: 62%
  Stable disease, Investigator assessed: 64%
Europe
  ORR (95% CI), IRC: 15 (10-21) %
  ORR (95% CI), Investigator assessed: 22 (16-29) %
  Progressive disease, IRC: 10%
  Progressive disease, Investigator assessed: 8%
  Stable disease, IRC: 69%
  Stable disease, Investigator assessed: 65%
ITT, all 658 randomized, cutoff Dec. 31, 2015
  Median OS: 21.4 months
ITT, all 658 randomized, cutoff May 22, 2015
  Objective response rate (confirmed, partial responses only) per IRC: 17%
North America
  ORR (95% CI), IRC: 16 (10-24) %
  ORR (95% CI), Investigator assessed: 20 (13-29) %
  Progressive disease, IRC: 17%
  Progressive disease, Investigator assessed: 13%
  Stable disease, IRC: 62%
  Stable disease, Investigator assessed: 62%
[1]
  Confirmed ORR (95% CI), IRC: 18 (12-24) %
  Confirmed ORR (95% CI), Investigator assessed: 21 (15-28) %
  Progressive disease, IRC: 8%
  Progressive disease, Investigator assessed: 7%
  Stable disease, IRC: 68%
  Stable disease, Investigator assessed: 67%
Patients With Low Tumor Burden
  Confirmed ORR (95% CI), IRC: 17 (12-24) %
  Confirmed ORR (95% CI), Investigator assessed: 27 (20-34) %
  Progressive disease, IRC: 16%
  Progressive disease, Investigator assessed: 10%
  Stable disease, IRC: 62%
  Stable disease, Investigator assessed: 59%
[2]
  Median PFS: 7.4 mo
  PFS HR, cabozantinib vs everolimus: 0.58
Pts with Bone Metastases
  Confirmed responses (95% CI), IRC: 17 (9-27) %
  Confirmed responses (95% CI), Investigator assessed: 27 (18-39) %
  Progressive disease, IRC: 13%
  Progressive disease, Investigator assessed: 9%
  Stable disease, IRC: 70%
  Stable disease, Investigator assessed: 64%
[3]
  Confirmed responses (95% CI), IRC: 20 (11-32) %
  Confirmed responses (95% CI), Investigator assessed: 30 (19-43) %
  Progressive disease, IRC: 15%
  Progressive disease, Investigator assessed: 10%
  Stable disease, IRC: 65%
  Stable disease, Investigator assessed: 60%
Pts without Bone Metastases
  Confirmed responses (95% CI), IRC: 17 (13-23) %
  Confirmed responses (95% CI), Investigator assessed: 23 (18-28) %
  Progressive disease, IRC: 12%
  Progressive disease, Investigator assessed: 9%
  Stable disease, IRC: 64%
  Stable disease, Investigator assessed: 83%
[4]
  Median PFS: 7.4 mo
  PFS HR, cabozantinib vs everolimus: 0.51
[5]
  Median PFS: 6 mo
  PFS HR, cabozantinib vs everolimus: 0.48
All 658 randomized, cutoff May 22, 2015
  Objective response rate per investigator: 24%
[6]
  Median duration of PFS: 7.4 months
  PFS HR, cabozantinib vs everolimus: 0.51 and 0.52
All 658 randomized, per IRC, cutoff May 22, 2015, listed as Cabozantinib
  Median duration of PFS: 7.4 (6.6-9.1) months and 7.4 months
All 658 randomized, per investigator
  PFS HR, cabozantinib vs everolimus: 0.54
All 658 randomized, per investigator, cutoff May 22, 2015
  Median duration of PFS: 7.4 (7.3-7.8) months
All 658 randomized, per investigator, listed as Cabozantinib
  PFS HR, cabozantinib vs everolimus: 0.54 (0.45-0.66)
Per IRC, cutoff May 22, 2015
  PFS event: 180 (55) ^ n (%)
Per investigator, cutoff May 22, 2015
  PFS event: 196 (59) ^ n (%)
[7]
  Median PFS, alternative analysis: 6 mo
  PFS HR, alternative analysis: 0.49 and 0.48
First 375 randomized, per independent radiology review committee (IRC)
  Median PFS: 7.4 months
High MET tumor expression
  Median OS: 22.0 months
  OS HR, cabozantinib vs everolimus: 0.55
High tumor burden
  Median OS: 18.1 mo
[8]
  OS HR, cabozantinib vs eve: 0.60
  PFS HR, cabozantinib vs eve: 0.41
In vivo
  Patients with reduction in measurable tumor lesion size: 75%
Low MET tumor expression
  Median OS: 20.8 months
  OS HR, cabozantinib vs everolimus: 0.72
Low tumor burden
  Median OS: 22.0 mo
Low tumor burden (<median SoD)
  OS HR, cabozantinib vs eve: 0.76
  PFS HR, cabozantinib vs eve: 0.63
Patients enrolled in Canada
  Median OS: 20.8 mo
  Median PFS: 7.4 mo
  ORR: 17%
  OS HR, cabo vs eve: 0.33
  PFS HR, cabo vs eve: 0.40
Patients with bone + visceral metastases
  PFS HR, cabozantinib vs everolimus: 0.26
[9]
  Median PFS: 5.6 mo
  ORR: 20%
  OS HR, cabozantinib vs everolimus: 0.45
Patients with bone metastases
  Median PFS: 7.4 mo
  ORR: 17%
  OS HR, cabozantinib vs everolimus: 0.54
Patients with bone metastases at baseline
  PFS HR, cabozantinib vs everolimus: 0.33
[10]
  OS HR, cabozantinib vs eve: 0.66
  PFS HR, cabozantinib vs eve: 0.48
Pazopanib as only prior VEGFR TKI
  OS HR, cabozantinib vs everolimus: 0.66
[11]
  Median OS: 22.0 months
  Median PFS: 7.4 months
Per IRC
  Best overall response: confirmed complete response: 0 n
  Best overall response: confirmed partial response: 57 n
Per investigator
  Best overall response: confirmed complete response: 0 n
[12]
  Confirmed ORR (95% CI), tumor response by IRC: 22 (6-48) %
  Confirmed ORR (95% CI), tumor response by investigator: 22 (6-48) %
  Progressive disease, tumor response by IRC: 11%
  Progressive disease, tumor response by investigator: 11%
  Stable disease, tumor response by IRC: 50%
  Stable disease, tumor response by investigator: 56%
[13]
  Confirmed ORR (95% CI), tumor response by IRC: 19 (12-29) %
  Confirmed ORR (95% CI), tumor response by investigator: 31 (21-41) %
  Progressive disease, tumor response by IRC: 14%
  Progressive disease, tumor response by investigator: 3%
  Stable disease, tumor response by IRC: 65%
  Stable disease, tumor response by investigator: 64%
[14]
  Confirmed ORR (95% CI), tumor response by IRC: 16 (11-24) %
  Confirmed ORR (95% CI), tumor response by investigator: 23 (16-31) %
  Progressive disease, tumor response by IRC: 12%
  Progressive disease, tumor response by investigator: 11%
  Stable disease, tumor response by IRC: 66%
  Stable disease, tumor response by investigator: 60%
Region Asia Pacific (AP)
  ORR: 28%
  OS HR, cabozantinib vs eve: 0.49
  PFS HR, cabozantinib vs eve: 0.43
Region Europe (EU)
  ORR: 15%
  OS HR, cabozantinib vs eve: 0.67
  PFS HR, cabozantinib vs eve: 0.54
Region North America (NA)
  ORR: 16%
  OS HR, cabozantinib vs eve: 0.79
  PFS HR, cabozantinib vs eve: 0.50
Second interim analysis of OS, of randomized patients
  Deaths: 42%
Sunitinib as only prior VEGFR TKI
  OS HR, cabozantinib vs everolimus: 0.66
[15]
  Median OS: 21.4 months
  Median PFS: 9.1 months
